Source: the NIST ThermoML archive (doi:10.1016/j.tca.2005.08.036)

Assay: mn = molality of the nth substance listed, in mol/kg
Conditions: Liquid, Capillary tube (Ostwald / Ubbelohde) method

[I-].[Li+] [lithium iodide] + O
viscosity [mPa·s]
Conditions	100 kPa	10000 kPa	40000 kPa
293.15 K, m1 = 0.08	1.009	1.005	0.9978
293.15 K, m1 = 0.16	1.015	1.012	1.004
293.15 K, m1 = 0.2832	1.025	1.02	1.014
293.15 K, m1 = 0.6621	1.05	1.047	1.039
293.15 K, m1 = 1.605	1.122	1.118	1.112
293.15 K, m1 = 2.16	1.158	1.154	1.147
293.15 K, m1 = 3.089	1.227	1.224	1.215
298.15 K, m1 = 0.08	0.8961	0.8946	0.892
298.15 K, m1 = 0.16	0.9025	0.9012	0.8979
298.15 K, m1 = 0.2832	0.9114	0.9098	0.907
298.15 K, m1 = 0.6621	0.9363	0.9351	0.9225
298.15 K, m1 = 1.605	1.002	1.001	0.9979
298.15 K, m1 = 2.16	1.04	1.038	1.035
298.15 K, m1 = 3.089	1.108	1.101	1.097
304.75 K, m1 = 0.6621	0.8141	0.8149	0.8164
304.77 K, m1 = 0.08	0.7764	0.777	0.7779
307.45 K, m1 = 3.089	0.9235	0.925	0.9291
308.74 K, m1 = 0.16	0.7215	0.7221	0.7256
310.64 K, m1 = 0.2832	0.7028	0.7047	0.7074
311.74 K, m1 = 1.605	0.7684	0.77	0.7748
312.45 K, m1 = 2.16	0.7939	0.7957	0.8016
322.51 K, m1 = 0.2832	0.5682	0.5704	0.5768
323.45 K, m1 = 1.605	0.6301	0.6327	0.6406
323.74 K, m1 = 0.16	0.5504	0.5527	0.5599
324.02 K, m1 = 2.16	0.6554	0.6584	0.6666
324.23 K, m1 = 0.6621	0.5733	0.5758	0.5829
324.62 K, m1 = 0.08	0.5385	0.5407	0.5475
325.64 K, m1 = 3.089	0.6865	0.6896	0.6986
341.69 K, m1 = 0.08	0.4164	0.4192	0.4252
343.64 K, m1 = 0.6621	0.4337	0.4368	0.4458
344.06 K, m1 = 0.16	0.4065	0.4093	0.4177
344.66 K, m1 = 1.605	0.4673	0.4708	0.4804
345.43 K, m1 = 2.16	0.4884	0.4912	0.5015
347.42 K, m1 = 0.2832	0.394	0.3976	0.4052
348.24 K, m1 = 3.089	0.5101	0.5144	0.5255
363.94 K, m1 = 3.089	0.4275	0.4317	0.4435
364.95 K, m1 = 2.16	0.3905	0.3944	0.4048
367.05 K, m1 = 0.2832	0.3119	0.3142	0.3227
368.75 K, m1 = 1.605	0.3544	0.358	0.3678
368.79 K, m1 = 0.16	0.3014	0.3044	0.3128
369.35 K, m1 = 0.08	0.2968	0.2996	0.3079
369.49 K, m1 = 0.6621	0.3189	0.3222	0.3313
396.7 K, m1 = 0.08	–	0.2301	0.2381
397.72 K, m1 = 2.16	–	0.2921	0.3023
397.82 K, m1 = 0.16	–	0.2304	0.2385
398.32 K, m1 = 0.2832	–	0.2331	0.2414
398.72 K, m1 = 3.089	–	0.3165	0.3278
398.94 K, m1 = 1.605	–	0.2713	0.2809
399.03 K, m1 = 0.6621	–	0.2447	0.2534
421.45 K, m1 = 0.6621	–	0.206	0.2139
422.12 K, m1 = 0.08	–	0.1885	0.1959
422.41 K, m1 = 3.089	–	0.2666	0.277
422.47 K, m1 = 1.605	–	0.2275	0.2363
424.14 K, m1 = 0.2832	–	0.1913	0.1988
424.41 K, m1 = 2.16	–	0.24	0.2494
424.49 K, m1 = 0.16	–	0.1874	0.1947
444.25 K, m1 = 2.16	–	0.2119	0.2206
447.54 K, m1 = 3.089	–	0.2284	0.2383
447.94 K, m1 = 1.605	–	0.1945	0.2029
448.75 K, m1 = 0.16	–	0.1602	0.1674
449.02 K, m1 = 0.08	–	0.1581	0.1648
449.06 K, m1 = 0.6621	–	0.1725	0.1802
449.71 K, m1 = 0.2832	–	0.1622	0.1696
472.45 K, m1 = 0.08	–	0.1387	0.1452
472.92 K, m1 = 0.2832	–	0.1429	0.1501
473.06 K, m1 = 1.605	–	0.1699	0.1784
473.07 K, m1 = 2.16	–	0.1815	0.19
473.46 K, m1 = 0.16	–	0.1397	0.1467
473.71 K, m1 = 3.089	–	0.1992	0.2091
474.98 K, m1 = 0.6621	–	0.1497	0.1572
522.7 K, m1 = 0.16	–	0.1109	0.1182
523.42 K, m1 = 3.089	–	0.1603	0.1711
523.72 K, m1 = 0.08	–	0.1089	0.1163
524.07 K, m1 = 0.2832	–	0.1123	0.1199
524.86 K, m1 = 1.605	–	0.1344	0.1433
525.42 K, m1 = 0.6621	–	0.1185	0.1266
525.49 K, m1 = 2.16	–	0.1435	0.1531
